PubChem BioAssay AID1963864 (Molecular Pharmacology Branch, DTP, NCI, 2024)

Tested on: KRAS PDC multicell spheroid viability
Experiment: Anticancer human tumor 521955-158-R6-J3-PDC patient-derived pancreatic carcinoma cell line growth inhibition [KRAS2]
Settings: for IC50: curve of first compound; for viability, T/C: stronger effect = lower value
Outline: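 KRAS-mutant tumor cells were grown as spheroids with HUVEC endothelial cells and human MSCs as stroma. Targeted agents were tested alone and with KRAS pathway inhibitors. Doses started at or near clinical Cmax, or 10 microM, descending half-log.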

[1] = second compound 0.1 µM, first compound 0.0316 µM
[2] = second compound 0.1 µM, first compound 0.1 µM
[3] = second compound 0.1 µM, first compound 0.316 µM
[4] = second compound 0.1 µM, first compound 1 µM
[5] = second compound 0.1 µM, first compound 3.16 µM
[6] = second compound 0.1 µM, first compound 10 µM
[7] = second compound 0.316 µM, first compound 0.0316 µM
[8] = second compound 0.316 µM, first compound 0.1 µM
[9] = second compound 0.316 µM, first compound 0.316 µM
[10] = second compound 0.316 µM, first compound 1 µM
[11] = second compound 0.316 µM, first compound 3.16 µM
[12] = second compound 0.316 µM, first compound 10 µM
[13] = second compound 1 µM, first compound 0.0316 µM
[14] = second compound 1 µM, first compound 0.1 µM
[15] = second compound 1 µM, first compound 0.316 µM
[16] = second compound 1 µM, first compound 1 µM
[17] = second compound 1 µM, first compound 3.16 µM
[18] = second compound 1 µM, first compound 10 µM
[19] = second compound 3.16 µM, first compound 0.0316 µM
[20] = second compound 3.16 µM, first compound 0.1 µM
[21] = second compound 3.16 µM, first compound 0.316 µM
[22] = second compound 3.16 µM, first compound 1 µM
[23] = second compound 3.16 µM, first compound 3.16 µM
[24] = second compound 3.16 µM, first compound 10 µM
[25] = second compound 10 µM, first compound 0.0316 µM
[26] = second compound 10 µM, first compound 0.1 µM
[27] = second compound 10 µM, first compound 0.316 µM
[28] = second compound 10 µM, first compound 1 µM
[29] = second compound 10 µM, first compound 3.16 µM
[30] = second compound 10 µM, first compound 10 µM
[31] = second compound 0.1 µM, first compound 0.01 µM
[32] = second compound 0.316 µM, first compound 0.01 µM
[33] = second compound 1 µM, first compound 0.01 µM
[34] = second compound 3.16 µM, first compound 0.01 µM
[35] = second compound 10 µM, first compound 0.01 µM
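Also: drug exposure lasted seven days.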
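For viability, T/C in this document: 100% = DMSO vehicle wells and lower means fewer viable cells.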

SMILES: CC(C)NCC(C(=O)N1CCN(c2ncnc3c2C(C)CC3O)CC1)c1ccc(Cl)cc1 (stereo not given) + CNCc1ccccc1-c1csc(C(C)Nc2nc(C)nc3cc(OC)c(OC)cc23)c1
- IC50 (second compound 0.1 µM): > 10 µM
- IC50 (second compound 0.316 µM): > 10 µM
- IC50 (second compound 1 µM): > 10 µM
- IC50 (second compound 3.16 µM): < 0.0316 µM
- IC50 (second compound 10 µM): < 0.0316 µM
- viability, T/C [1]: 88.1%
- viability, T/C [2]: 84.2%
- viability, T/C [3]: 74.7%
- viability, T/C [4]: 69.8%
- viability, T/C [5]: 80.4%
- viability, T/C [6]: 70.2%
- viability, T/C [7]: 74.9%
- viability, T/C [8]: 80%
- viability, T/C [9]: 64.8%
- viability, T/C [10]: 64.5%
- viability, T/C [11]: 66.7%
- viability, T/C [12]: 63%
- viability, T/C [13]: 77.6%
- viability, T/C [14]: 62.7%
- viability, T/C [15]: 67.6%
- viability, T/C [16]: 64.3%
- viability, T/C [17]: 66.9%
- viability, T/C [18]: 61.4%
- viability, T/C [19]: 0.31%
- viability, T/C [20]: 0.37%
- viability, T/C [21]: 0.26%
- viability, T/C [22]: 0.31%
- viability, T/C [23]: 1.96%
- viability, T/C [24]: 0.86%
- viability, T/C [25]: 0.16%
- viability, T/C [26]: 0.14%
- viability, T/C [27]: 0.24%
- viability, T/C [28]: 0.25%
- viability, T/C [29]: 0.16%
- viability, T/C [30]: 0.27%

SMILES: CC1COCCN1c1cc(-c2ccnn2C)c2ccnc(-c3ccn[nH]3)c2n1 (stereo not given) + CNCc1ccccc1-c1csc(C(C)Nc2nc(C)nc3cc(OC)c(OC)cc23)c1
- IC50 (second compound 0.1 µM): > 3.16 µM
- IC50 (second compound 0.316 µM): > 3.16 µM
- IC50 (second compound 1 µM): > 3.16 µM
- IC50 (second compound 3.16 µM): < 0.01 µM
- IC50 (second compound 10 µM): < 0.01 µM
- viability, T/C [31]: 83.9%
- viability, T/C [1]: 90.4%
- viability, T/C [2]: 80.4%
- viability, T/C [3]: 76.2%
- viability, T/C [4]: 64.4%
- viability, T/C [5]: 81.2%
- viability, T/C [32]: 79.5%
- viability, T/C [7]: 70.4%
- viability, T/C [8]: 71%
- viability, T/C [9]: 57.9%
- viability, T/C [10]: 69.3%
- viability, T/C [11]: 68.4%
- viability, T/C [33]: 68.6%
- viability, T/C [13]: 63.3%
- viability, T/C [14]: 58.1%
- viability, T/C [15]: 47.3%
- viability, T/C [16]: 55.1%
- viability, T/C [17]: 63.7%
- viability, T/C [34]: 0.45%
- viability, T/C [19]: 0.29%
- viability, T/C [20]: 1.4%
- viability, T/C [21]: 0.26%
- viability, T/C [22]: 0.42%
- viability, T/C [23]: 0.43%
- viability, T/C [35]: 0.19%
- viability, T/C [25]: 0.19%
- viability, T/C [26]: 0.21%
- viability, T/C [27]: 0.16%
- viability, T/C [28]: 0.17%
- viability, T/C [29]: 0.3%

SMILES: CC1OCC2(CCN(c3cnc(Sc4ccnc(N)c4Cl)c(N)n3)CC2)C1N (stereo not given) + CNCc1ccccc1-c1csc(C(C)Nc2nc(C)nc3cc(OC)c(OC)cc23)c1
- IC50 (second compound 0.1 µM): > 10 µM
- IC50 (second compound 0.316 µM): > 10 µM
- IC50 (second compound 1 µM): > 10 µM
- IC50 (second compound 3.16 µM): < 0.0316 µM
- IC50 (second compound 10 µM): < 0.0316 µM
- viability, T/C [1]: 83.1%
- viability, T/C [2]: 73.2%
- viability, T/C [3]: 73.5%
- viability, T/C [4]: 81.8%
- viability, T/C [5]: 105%
- viability, T/C [6]: 100%
- viability, T/C [7]: 83.7%
- viability, T/C [8]: 80.3%
- viability, T/C [9]: 70%
- viability, T/C [10]: 72.7%
- viability, T/C [11]: 92.2%
- viability, T/C [12]: 105%
- viability, T/C [13]: 67.3%
- viability, T/C [14]: 67%
- viability, T/C [15]: 66.5%
- viability, T/C [16]: 72%
- viability, T/C [17]: 90%
- viability, T/C [18]: 67.3%
- viability, T/C [19]: 0.42%
- viability, T/C [20]: 0.24%
- viability, T/C [21]: 0.25%
- viability, T/C [22]: 0.33%
- viability, T/C [23]: 1.07%
- viability, T/C [24]: 0.41%
- viability, T/C [25]: 0.23%
- viability, T/C [26]: 0.26%
- viability, T/C [27]: 0.26%
- viability, T/C [28]: 0.17%
- viability, T/C [29]: 0.22%
- viability, T/C [30]: 0.27%

SMILES: CCN1CCN(Cc2ccc(Nc3ncc(F)c(-c4cc(F)c5nc(C)n(C(C)C)c5c4)n3)nc2)CC1 + CNCc1ccccc1-c1csc(C(C)Nc2nc(C)nc3cc(OC)c(OC)cc23)c1
- IC50 (second compound 0.1 µM): > 1 µM
- IC50 (second compound 0.316 µM): > 1 µM
- IC50 (second compound 1 µM): 0.317 µM
- IC50 (second compound 3.16 µM): < 0.00316 µM
- IC50 (second compound 10 µM): < 0.00316 µM
- viability, T/C (second compound 0.1 µM, first compound 0.00316 µM): 75.1%
- viability, T/C [31]: 77.8%
- viability, T/C [1]: 70.5%
- viability, T/C [2]: 67.1%
- viability, T/C [3]: 72.1%
- viability, T/C [4]: 102%
- viability, T/C (second compound 0.316 µM, first compound 0.00316 µM): 77.7%
- viability, T/C [32]: 71.9%
- viability, T/C [7]: 74.1%
- viability, T/C [8]: 68%
- viability, T/C [9]: 67.5%
- viability, T/C [10]: 80.2%
- viability, T/C (second compound 1 µM, first compound 0.00316 µM): 66.8%
- viability, T/C [33]: 70.3%
- viability, T/C [13]: 63.5%
- viability, T/C [14]: 53.8%
- viability, T/C [15]: 54.8%
- viability, T/C [16]: 30.8%
- viability, T/C (second compound 3.16 µM, first compound 0.00316 µM): 0.3%
- viability, T/C [34]: 0.38%
- viability, T/C [19]: 0.51%
- viability, T/C [20]: 0.75%
- viability, T/C [21]: 0.45%
- viability, T/C [22]: 0.37%
- viability, T/C (second compound 10 µM, first compound 0.00316 µM): 0.25%
- viability, T/C [35]: 0.26%
- viability, T/C [25]: 0.3%
- viability, T/C [26]: 0.21%
- viability, T/C [27]: 0.22%
- viability, T/C [28]: 0.46%

SMILES: CCNC(=O)CC1N=C(c2ccc(Cl)cc2)c2cc(OC)ccc2-n2c(C)nnc21 (stereo not given) + CNCc1ccccc1-c1csc(C(C)Nc2nc(C)nc3cc(OC)c(OC)cc23)c1
- IC50 (second compound 0.1 µM): > 10 µM
- IC50 (second compound 0.316 µM): > 10 µM
- IC50 (second compound 1 µM): > 10 µM
- IC50 (second compound 3.16 µM): < 0.0316 µM
- IC50 (second compound 10 µM): < 0.0316 µM
- viability, T/C [1]: 96.3%
- viability, T/C [2]: 90.5%
- viability, T/C [3]: 67.6%
- viability, T/C [4]: 69.5%
- viability, T/C [5]: 68.1%
- viability, T/C [6]: 73.8%
- viability, T/C [7]: 82.3%
- viability, T/C [8]: 71.9%
- viability, T/C [9]: 72.4%
- viability, T/C [10]: 61%
- viability, T/C [11]: 65.8%
- viability, T/C [12]: 69.5%
- viability, T/C [13]: 71.3%
- viability, T/C [14]: 62%
- viability, T/C [15]: 61.6%
- viability, T/C [16]: 62.8%
- viability, T/C [17]: 74.3%
- viability, T/C [18]: 73%
- viability, T/C [19]: 0.29%
- viability, T/C [20]: 0.34%
- viability, T/C [21]: 0.34%
- viability, T/C [22]: 0.43%
- viability, T/C [23]: 0.28%
- viability, T/C [24]: 0.8%
- viability, T/C [25]: 0.2%
- viability, T/C [26]: 0.18%
- viability, T/C [27]: 0.16%
- viability, T/C [28]: 0.17%
- viability, T/C [29]: 0.21%
- viability, T/C [30]: 0.28%

SMILES: CC(=O)OC12COC1CC(O)C1(C)C(=O)C(O)C3=C(C)C(OC(=O)C(O)C(NC(=O)OC(C)(C)C)c4ccccc4)CC(O)(C(OC(=O)c4ccccc4)C21)C3(C)C (stereo not given) + COc1cc2nc(C)nc(NC(C)c3cc(N)cc(C(F)(F)F)c3)c2cc1OC1CCOC1
- IC50 (second compound 0.1 µM): > 3.16 µM
- IC50 (second compound 0.316 µM): > 3.16 µM
- IC50 (second compound 1 µM): > 3.16 µM
- IC50 (second compound 3.16 µM): > 3.16 µM
- IC50 (second compound 10 µM): > 3.16 µM
- viability, T/C [31]: 78.7%
- viability, T/C [1]: 74.6%
- viability, T/C [2]: 69.7%
- viability, T/C [3]: 77.8%
- viability, T/C [4]: 85.7%
- viability, T/C [5]: 114%
- viability, T/C [32]: 66.3%
- viability, T/C [7]: 66.5%
- viability, T/C [8]: 70.2%
- viability, T/C [9]: 60.3%
- viability, T/C [10]: 90.7%
- viability, T/C [11]: 117%
- viability, T/C [33]: 75.6%
- viability, T/C [13]: 67.3%
- viability, T/C [14]: 66.5%
- viability, T/C [15]: 78.5%
- viability, T/C [16]: 86.2%
- viability, T/C [17]: 106%
- viability, T/C [34]: 52.6%
- viability, T/C [19]: 61.3%
- viability, T/C [20]: 55.7%
- viability, T/C [21]: 70%
- viability, T/C [22]: 111%
- viability, T/C [23]: 120%
- viability, T/C [35]: 68.5%
- viability, T/C [25]: 62.2%
- viability, T/C [26]: 72.6%
- viability, T/C [27]: 84.6%
- viability, T/C [28]: 102%
- viability, T/C [29]: 120%
